# Assay results: patent publication US20190008797A1, “ESTROGEN RECEPTOR ALPHA COLIGANDS, AND METHODS OF USE THEREOF” (priority 2016, published 2019)
# Assays:
# ERβ = target: T1, ERβ (Homo sapiens, UniProt Q92731); test: ERE-tk luciferase transfection assay, U2OS cells cotransfected with ERβ; type: cell-based
# T1 construct: expressed in transfected cells; host or cells: U2OS
# U2OS-ERα cells [1] = test: KRT19 mRNA real-time PCR in U2OS-ERα cells; type: cell-based, human
# Description: (FIG. 1a) Chemical structure of 2′, 3′, 4′-THC. (FIG. 1b) U2OS cells cotransfected with ERE tk-luciferase and ERα (left panel) or ERβ (right panel). After transfection the cells were treated for 24 hours with 10 nM estradiol and 5 μM 2′, 3′, 4′-THC alone or in combination. Cells were lysed and luciferase activity was measured. RLU is relative light units. Error bars are the Mean±SEM. **P≤0.01. […] The total cellular RNA was extracted and real-time PCR for KRT19 mRNA was performed as described in Materials and Methods. […] Error bars are ±SEM. *P≤0.05, **** P≤0.0001.
# FIGS. 3a-3d. […] Error bars are ±SEM.
# [2] = target: T2, human glucocorticoid receptor (Homo sapiens, UniProt P04150); test: GRE-TK-Luc reporter, U2OS cells cotransfected with hGR; type: cell-based; details: 5 μM + 10 nM dexamethasone, 24 hours
# T2 construct: expressed in transfected cells; host or cells: U2OS
# T2 sequence (P04150 1-777): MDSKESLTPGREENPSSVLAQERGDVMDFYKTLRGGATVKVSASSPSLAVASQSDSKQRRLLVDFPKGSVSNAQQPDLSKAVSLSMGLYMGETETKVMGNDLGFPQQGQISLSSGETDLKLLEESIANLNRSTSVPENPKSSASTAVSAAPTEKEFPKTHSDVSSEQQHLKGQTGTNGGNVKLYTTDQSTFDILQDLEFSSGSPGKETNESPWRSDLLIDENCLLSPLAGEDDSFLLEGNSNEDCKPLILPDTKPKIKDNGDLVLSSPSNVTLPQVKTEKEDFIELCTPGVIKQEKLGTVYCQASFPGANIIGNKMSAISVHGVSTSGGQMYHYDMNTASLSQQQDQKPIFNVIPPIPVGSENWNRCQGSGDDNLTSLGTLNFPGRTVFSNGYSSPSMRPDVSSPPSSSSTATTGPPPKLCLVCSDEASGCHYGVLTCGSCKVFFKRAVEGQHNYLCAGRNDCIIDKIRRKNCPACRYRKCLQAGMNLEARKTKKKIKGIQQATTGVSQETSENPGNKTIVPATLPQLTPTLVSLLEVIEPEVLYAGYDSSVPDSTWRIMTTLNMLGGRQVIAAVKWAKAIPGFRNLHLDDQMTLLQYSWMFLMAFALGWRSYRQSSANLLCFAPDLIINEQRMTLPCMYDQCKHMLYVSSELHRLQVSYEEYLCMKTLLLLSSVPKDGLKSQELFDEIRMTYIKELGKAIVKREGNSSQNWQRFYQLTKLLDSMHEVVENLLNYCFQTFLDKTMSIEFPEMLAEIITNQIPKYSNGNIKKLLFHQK
# U2OS-ERα cells [3] = test: Real-time PCR of unique genes FGR, KCNK6, KRT73 in U2OS-ERα cells; type: cell-based, human; details: E2 in combination with 5 μM 2′,3′,4′-THC, 24 hrs
# Description: Expression was assessed by up regulation or down regulation of 3-fold or more and a P-value≤0.05. […] Error bars are ±SEM.
# (§1) (FIGS. 6a, 6b) Gene expression of (FIG. 6a) KRT73 and (FIG. 6b) NKG2E in U2OS-ERα cells treated with 10 nM estradiol, 5 μM 2′, 3′, 4′-THC, 1μM ICI alone or in combination for 24 hours. […] Error bars are ±SEM. […] After transfection, luciferase activities were measured as described in the Methods. RLU is relative light units and the data shown are mean ±SEM. (FIG. 6c). […] After transfection, luciferase activities were measured as described in the Methods. RLU is relative light units and the data shown are mean ±SEM (FIG. 6d).
# ERα LBD = target: T3, ERα LBD (Homo sapiens, UniProt P03372); type: binding; details: 5 μM 2′,3′,4′-THC alone
# T3 construct: Purified ERα LBD containing amino acids 315-545 used by Brzozowski et al; histidine-tag; purchased GenScript
# T3 sequence (P03372 315-545): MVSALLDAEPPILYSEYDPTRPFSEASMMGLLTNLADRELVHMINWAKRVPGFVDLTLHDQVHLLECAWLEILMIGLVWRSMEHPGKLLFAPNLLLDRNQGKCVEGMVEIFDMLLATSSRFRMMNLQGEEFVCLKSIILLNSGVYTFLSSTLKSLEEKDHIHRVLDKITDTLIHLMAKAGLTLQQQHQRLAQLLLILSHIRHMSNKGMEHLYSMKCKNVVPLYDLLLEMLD
# MCF-7 cells = test: MCF-7 cell proliferation (cell counting); details: 5 days
# ERα [4] = target: T4, ERα (Homo sapiens, UniProt P03372); test: Competitive [3H]-E2 binding in U2OS-ERα cells; parameters: expressed in transfected cells; host or cells: U2OS
# ERα [5] = target: T4, ERα; test: NKG2E-TK-Luc transfection assay, U2OS cells cotransfected with ERα; type: cell-based; parameters: expressed in transfected cells; host or cells: U2OS
# Description: FIG. 7a-7e. […] (C) U2OS cells cotransfected with GRE-TK-Luc and human (h) GR and treated with 10 nM of dexamethasone (Dex) and 5 μM of 2′, 3′, 4′-THC alone or in combination for 24 hours. (D) U2OS cells cotransfected with human tyrosine aminotransferase (TATS)-luciferase reporter gene and hAR and treated with 10 nM of dihydrotestosterone (DHT) and 5 μM of 2′, 3′, 4′-THC alone or in combination for 24 hours. (E) U2OS cells cotransfected with TAT3-luciferase reporter gene and hPR-B and treated with 10 nM of progesterone (Prog) and 5 μM of 2′, 3′, 4′-THC alone or in combination for 24 hours. After transfection, luciferase activities were measured as described in the Methods. RLU is relative light units and the data shown are mean±SEM.
# as §1
# T4 sequence (P03372 whole entry): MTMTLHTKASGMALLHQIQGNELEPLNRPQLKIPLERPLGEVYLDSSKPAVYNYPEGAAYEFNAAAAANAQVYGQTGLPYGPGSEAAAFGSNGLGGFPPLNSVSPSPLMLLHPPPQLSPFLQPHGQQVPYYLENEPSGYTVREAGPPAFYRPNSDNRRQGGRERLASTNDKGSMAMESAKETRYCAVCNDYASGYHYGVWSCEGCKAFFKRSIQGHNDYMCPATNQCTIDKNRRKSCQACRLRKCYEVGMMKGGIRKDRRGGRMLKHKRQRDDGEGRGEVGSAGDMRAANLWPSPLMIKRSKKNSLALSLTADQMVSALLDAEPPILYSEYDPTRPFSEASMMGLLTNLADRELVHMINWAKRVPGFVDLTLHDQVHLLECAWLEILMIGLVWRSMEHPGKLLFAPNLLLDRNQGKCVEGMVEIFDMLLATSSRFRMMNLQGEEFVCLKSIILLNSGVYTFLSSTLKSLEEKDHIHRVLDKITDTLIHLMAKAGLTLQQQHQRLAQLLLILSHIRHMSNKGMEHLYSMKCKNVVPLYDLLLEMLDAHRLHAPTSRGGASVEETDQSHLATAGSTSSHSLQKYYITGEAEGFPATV
# T1 sequence (Q92731 whole entry): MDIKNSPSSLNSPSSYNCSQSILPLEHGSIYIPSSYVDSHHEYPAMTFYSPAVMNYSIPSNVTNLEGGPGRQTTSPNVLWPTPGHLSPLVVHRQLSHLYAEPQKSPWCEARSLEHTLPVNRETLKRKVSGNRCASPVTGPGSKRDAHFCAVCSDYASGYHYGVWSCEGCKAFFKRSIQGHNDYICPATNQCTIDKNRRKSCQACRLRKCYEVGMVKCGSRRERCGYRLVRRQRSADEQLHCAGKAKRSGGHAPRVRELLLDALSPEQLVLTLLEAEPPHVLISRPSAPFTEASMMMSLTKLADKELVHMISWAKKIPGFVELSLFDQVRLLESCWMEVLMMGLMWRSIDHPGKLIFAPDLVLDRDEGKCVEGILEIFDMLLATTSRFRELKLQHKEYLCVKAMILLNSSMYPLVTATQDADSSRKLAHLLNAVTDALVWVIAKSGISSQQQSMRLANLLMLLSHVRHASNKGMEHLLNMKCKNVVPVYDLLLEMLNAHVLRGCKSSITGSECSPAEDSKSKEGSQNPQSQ
structure (smiles),measurement,setting,value
"O=C(/C=C/c1ccccc1)c1ccc(O)c(O)c1O [2′, 3′, 4′-THC, 2′, 3′, 4′-trihydroxychalcone]",luciferase activity with E2,"ERβ; ERβ, 5 μM + 10 nM E2, 24 hours",synergistic increase
same,"activity on ERE luciferase, compound alone","ERβ; U2OS cells transfected with ERβ, 5 μM, 24 hours",inactive
same,"KRT19 gene expression, compound alone","U2OS-ERα cells [1]; 10 nM E2, 5 μM 2′,3′,4′-THC, 1 μM tamoxifen or raloxifene, 24 hours",no effect
same,activation of the KRT19 gene in the presence of E2,"U2OS-ERα cells [1]; 1 and 5 μM 2′,3′,4′-THC, 24 h",synergistic activation
same,effect on E2-induced KRT19 expression,"U2OS-ERα cells [1]; in combination with 10 nM E2, 24 hours",synergistic activation
same,synergy with receptor agonist,[2],no synergy
same,E2 dose at which FGR expression was induced,U2OS-ERα cells [3],0.1 nM
same,E2 dose at which KCNK6 expression was induced,U2OS-ERα cells [3],1 nM
same,E2 dose at which KRT73 expression was induced,U2OS-ERα cells [3],1 nM
same,melting temperature of ERα LBD,ERα LBD,no effect
same,effect on proliferation induced by E2,"MCF-7 cells; 1, 5 and 10 μM, dose-dependent",blocked
same,"MCF-7 cell proliferation, compound alone",MCF-7 cells,no effect
same,competing concentration relative to concentration required for synergy,ERα [4],100 fold
same,increase of [3H]-E2 binding,"ERα [4]; 5 or 10 μM, 5 nM [3H]-E2, 1 h, 37°C",~2 fold
same,IC50 relative to E2 (higher),ERα [4]; U2OS-ERα cells,"approximately 10,000 fold"
same,concentration at which the compound competes for [3H]-E2 binding,"ERα [4]; no competition below, 5 nM [3H]-E2",100 µM
same,response of NKG2E-TK-Luc with E2,"ERα [5]; 1 μM 2′,3′,4′-THC",synergistic response
same,response of NKG2E-TK-Luc with E2,"ERα [5]; 5 μM 2′,3′,4′-THC",maximal response
same,"synergistic activation of NKG2E-TK-Luc in combination with E2, tamoxifen or raloxifene","ERα [5]; 5 μM, 10 nM E2, 1 μM tamoxifen, 1 μM raloxifene, 24 hours",synergistic activation only with E2
same,"activation of NKG2E-TK-Luc, compound alone",ERα [5]; 24 hours,No activation
